Values belong to the compound of their own block, whether it stands above or below them.
Key:
C57BL/6 wild-type mice [1] = assay: Hemoglobin and leukocyte counts in cardiotoxicity study (FIG. 16d); type: in vivo; settings: 9 mg/kg DOX equivalent i.v. once weekly for 4 weeks
[2] = cited from earlier work
C57BL/6 wild-type mice [3] = assay: Glutathione and glutathione peroxidase (GPx) in mouse heart lysates; type: in vivo
Experimental: To evaluate the degree of oxidative stress in treated mice, levels of the antioxidants glutathione and glutathione peroxidase (GPx) were evaluated by western blot and ELISA, respectively, in mouse heart lysates.

BxPC3 = assay: In vitro cell viability (MTT) assay with gemcitabine, BxPC3 (FIG. 9); type: cell-based, human; settings: BxPC3, 96 hours
Experimental: FIG. 9 illustrates in vitro cell viability (MTT assay) performed using the water-soluble drug gemcitabine conjugated to the acrylic acid (AA) surface reactive functional group of polymeric nanoparticle. Unlike the poorly water drugs that are encapsulated within the nanoparticle, water soluble drugs like gemcitabine can be conjugated to the nanoparticle surface, rendering this compound amenable to oral delivery. Human pancreatic cancer cell line BxPC3 is incubated with increasing dosages of either free gemcitabine (black bar), nano-gemcitabine (white bar), void polymer (grey bar), or PBS solvent (patterned bar). UT=untreated. […] All assays were performed in triplicate and means and standard deviations are plotted.
Gemcitabine is a water soluble compound, and thus differs from the poorly water soluble drugs discussed above that are encapsulated within the hydrophobic core of the polymeric nanoparticles. Herein, we describe the chemical conjugation of gemcitabine, as one illustrative example of water soluble drugs, to the hydrophilic surface of the polymeric nanoparticles. Such conjugation is expected to render gemcitabine amenable to oral delivery, utilizing the oral bioavailability properties of the said polymeric nanoparticles used as a carrier. 10 mg of NMA622 polymeric nanoparticles were dispersed in 10 ml of water by vortexing. […]

[4] = Solubilization of poorly water soluble drugs in water (FIG. 2); type: physicochemical; settings: visual
[5] = Blood levels of rapamycin 2 hours after oral delivery (FIG. 10); type: in vivo, C57/B6 mice; settings: 15 mg/kg rapamycin equivalent, 2 hours post delivery, HPLC
From the text: FIG. 10 illustrates blood levels of rapamycin following oral delivery of polymeric nanoparticles. Rapamycin was encapsulated in nanoparticles comprised of increasing order of acrylic acid (AA) percentage in the co-polymeric composition. The nanoparticles were either administered as is, or after surface PEGylation. Compared are: Control A (rapamycin suspended in water); rapamycin nanoparticle comprised of NIPAAM:VP:AA in a ratio of 60:30:10 (designated as NVA631); rapamycin nanoparticle comprised of NIPAAM:VP:AA in a ratio of 60:20:20 (designated as NVA622); rapamycin nanoparticle comprised of NIPAAM:VP:AA in a ratio of 60:10:30 (designated as NVA613); and rapamycin nanoparticle comprised of NIPAAM:MMA:AA in a ratio of 60:20:20 (designated as NMA622). The corresponding PEGylated nanoparticles (PEG-NVA-631, PEG-NVA-622, PEG-NVA-613, and PEG-NMA-622) encapsulating rapamycin are designated as shaded bars. […] Blood levels are measured by HPLC from samples obtained at 2 hours post oral delivery.
Rapamycin is a poorly water soluble drug that has low oral bioavailability. […] At 2 hours post oral administration, the mice were bled and rapamycin concentrations in the blood were determined by high performance liquid chromatography (HPLC). […]

glutathione level (western blot) (C57BL/6 wild-type mice [3]): marked decrease
glutathione peroxidase (GPx) level (ELISA) (C57BL/6 wild-type mice [3]): marked decrease
SMILES: COc1cccc2c1C(=O)c1c(O)c3c(c(O)c1C2=O)C[C@@](O)(C(=O)CO)C[C@@H]3O[C@H]1C[C@H](N)[C@H](O)[C@H](C)O1 [DOX, doxorubicin]
Hemoglobin and leukocyte counts (C57BL/6 wild-type mice [1]): reduced
Hemoglobin (Hb) level, average (C57BL/6 wild-type mice [1]; control 12.5 g/dL): 7.5 g/dL
patients developing congestive heart failure (CHF) ([2]; cumulative dose of 550 mg/m2): 26%
frequency of CHF in pediatric acute lymphoblastic leukemia (ALL) patients ([2]; pediatric ALL patients): ≤ 57%

solubility in water (turbidity / transparency of solution) [4]: essentially insoluble in water
SMILES: CO[C@H]1/C=C/O[C@@]2(C)Oc3c(C)c(O)c4c(O)c(c(/C=N/N5CCN(C)CC5)c(O)c4c3C2=O)NC(=O)/C(C)=C\C=C\[C@H](C)[C@H](O)[C@@H](C)[C@@H](O)[C@@H](C)[C@H](OC(C)=O)[C@@H]1C [free rifampicin, rifampicin]

Further lines, the compound ahead of its results:

SMILES: Nc1ccn([C@@H]2O[C@H](CO)[C@@H](O)C2(F)F)c(=O)n1 [free gemcitabine, gemcitabine]
activity in cell viability assay (BxPC3): comparable activity

SMILES: CC(=O)O[C@H]1C(=O)[C@@]2(C)[C@H]([C@H](OC(=O)c3ccccc3)[C@]3(O)C[C@H](OC(=O)[C@H](O)[C@@H](NC(=O)c4ccccc4)c4ccccc4)C(C)=C1C3(C)C)[C@]1(OC(C)=O)CO[C@@H]1C[C@@H]2O [free paclitaxel, paclitaxel]
solubility in water (turbidity / transparency of solution) [4]: essentially insoluble in water

SMILES: CO[C@H]1C[C@@H]2CC[C@@H](C)[C@@](O)(O2)C(=O)C(=O)N2CCCC[C@H]2C(=O)O[C@H]([C@H](C)C[C@@H]2CC[C@@H](O)[C@H](OC)C2)CC(=O)[C@H](C)/C=C(\C)[C@@H](O)[C@@H](OC)C(=O)[C@H](C)C[C@H](C)/C=C/C=C/C=C/1C [free rapamycin, rapamycin]
solubility in water (turbidity / transparency of solution) [4]: essentially insoluble in water
blood levels of rapamycin [5]: essentially undetectable

Source: patent US20130330412A1, “SMART POLYMERIC NANOPARTICLES WHICH OVERCOME MULTIDRUG RESISTANCE TO CANCER THERAPEUTICS AND TREATMENT-RELATED SYSTEMIC TOXICITY” (THE JOHNS HOPKINS UNIVERSITY, priority 2010, published 2013)
